What was measured:
[1] = target: T1, CycK (Homo sapiens, UniProt O75909); experiment: CycK protein quantification by Western Blot in JIMT-1 cells; type: cell-based
T1 construct: endogenous in cells; host or cells: JIMT-1
Protocol: 1×10^6 JIMT-1 cells were plated in 3mL of DMEM/FBS 90:10 (v/v) in 6-well plates and incubated overnight. Cells were treated with the compound 2384 of the invention with or without the proteasome inhibitor MG-132 (MedChemExpress, Cat HY-13259) for 2h. Cells were harvested, and protein were extracted using complete RIPA buffer (RIPA buffer, 1 mM DTT, 1M NaF, 100 mM sodium orthovanadate, phosphatase inhibitor buffer and protease inhibitors) for 1 hour on ice. Lysate were centrifuged 15min at 12 000g at 4°C. and proteins were mixed with 4x Laemmli Sample Buffer (Bio-Rad), heated at 95 °C for 5 mins and separated by SDS PAGE (PROTEAN TGX Stain-Free Gels, Bio-Rad). Proteins were then transferred onto PVDF membrane (iBlot®2 PVDF stacks, Invitrogen) using the iBlot2 device (Invitrogen) and blocked with TBS buffer (Intercept® Blocking Buffer, LI-COR Biosciences). Primary antibodies were incubated overnight at 4°C and secondary antibodies (IRDye Infrared Dyes from LI-COR Biosciences) 1 hour at room temperature. Used primary antibody were: anti-CycK (cat#A301-939A, Bethyl Laboratories, dil. 1:1000) and anti-β-actin (cat#A5441, Sigma-Aldrich, dil. 1:5000). Membranes were scanned using a c500 Imaging System (Azure Biosystems) and densitometric quantification were performed using imaged software. Protein levels were normalized against β-actin.

[2] = tested on: JIMT-1 cells; experiment: Cell cycle arrest assessment (propidium iodide, flow cytometry); type: cell-based, human; settings: 24h, 2, 5, 10, and 50nM
Protocol: 1×10^6 JIMT-1 cells were plated in 3mL of DMEM/FBS 90:10 (v/v) in 6-well plates and incubated overnight. Cells were treated with the compound 2384 of the invention or with CR8 for 24h. Cells were then harvested and washed three times with PBS. Cells were suspended into 300µL of propidium iodide working solution (0.05mg/mL) and incubated for 45 minutes at 4°C in the dark. Analysis was performed using a BD Fortessa flow cytometer controlled by BD FACSDiva software (BD Biosciences) and data were analyzed using FlowJo software (BD Bioscience).

[3] = tested on: Cyclin K; experiment: CycK mRNA RT-qPCR in JIMT-1 cells; type: cell-based, human; settings: 1µM final concentration, 2h
Protocol: 1×10^6 JIMT-1 cells were plated in 3mL of DMEM/FBS 90:10 (v/v) in 6-well plates and incubated overnight. Cells were treated with the compound 2384 of the invention, with CR8 (a known molecular glue degrader that depletes CycK) or with the proteasome inhibitor MG-132 (MedChemExpress, Cat HY-13259) for 2h. RNA was extracted using the QIAamp RNeasy Mini Kit (cat#74106, Qiagen) according to the manufacturer's protocol. Reverse transcription was performed using SuperScripr™ IV reverse transcriptase (cat#LT02241, Invitrogen). Quantitative PCR was performed using a No ROX Sybr Master Mix in the LightCycler 480 Real-Time PCR system (Roche Life Science).
Cyclin K forward ([…]) and reverse ([…]) primers were purchased from Eurogentec. Gene expression was normalized using ribosomal 28S as the housekeeping gene.

[4] = tested on: panel of human cancer cell lines; experiment: In vitro cytotoxicity assay (MTT), panel of cell lines; type: cell-based
Excerpt: Human cancer cell lines used in the present project were purchased from either the American Type Culture Collection (ATCC), The Leibniz Institute DSMZ German Collection of Microorganisms and Cell Cultures GmbH (DSMZ) or the European Collection of Authenticated Cell Cultures (ECACC). For use in experiments, cells were cultivated following good and established cell culture practices, following instructions from the original ATCC/DSMZ/ECACC supplier for cell culture media & supplement, cryopreservation, and subculturing procedures. Cells were incubated under a 5% CO2 atmosphere at 37°C for no longer than 2 months.
In vitro cytotoxicity of compounds of the disclosure was assessed on several cancerous human cell lines. Cells were plated in 96-well plates at an appropriate density depending on the cell line (between 1000 and 10 000 cells/well in 100µL of appropriate culture media) and incubated at 37°C for 24 hours. Serial dilutions of the tested compound previously dissolved in culture media (50µL) were added, and incubation was carried at 37°C out for 6 days. MTT (5mg/mL in PBS, 20µL, Sigma-Aldrich) was added into the wells, and incubation was continued for 1 to 4 hours at 37°C. Culture media was then carefully removed, and well content was homogeneously dissolved with acidified isopropanol. Absorbance values were measured on a microplate reader using a wavelength of 570 nm (with a reference wavelength of 690 nm). The IC50 concentration values compared to untreated control cells were determined using inhibition dose response curve fitting (GraphPad Prism 9). Exatecan mesylate (cat#HY-13631A) and CR8 (CAS# 294646-77-8; cat#HY-18340) were purchased from MedChemExpress (China).

T1 sequence (O75909 whole entry): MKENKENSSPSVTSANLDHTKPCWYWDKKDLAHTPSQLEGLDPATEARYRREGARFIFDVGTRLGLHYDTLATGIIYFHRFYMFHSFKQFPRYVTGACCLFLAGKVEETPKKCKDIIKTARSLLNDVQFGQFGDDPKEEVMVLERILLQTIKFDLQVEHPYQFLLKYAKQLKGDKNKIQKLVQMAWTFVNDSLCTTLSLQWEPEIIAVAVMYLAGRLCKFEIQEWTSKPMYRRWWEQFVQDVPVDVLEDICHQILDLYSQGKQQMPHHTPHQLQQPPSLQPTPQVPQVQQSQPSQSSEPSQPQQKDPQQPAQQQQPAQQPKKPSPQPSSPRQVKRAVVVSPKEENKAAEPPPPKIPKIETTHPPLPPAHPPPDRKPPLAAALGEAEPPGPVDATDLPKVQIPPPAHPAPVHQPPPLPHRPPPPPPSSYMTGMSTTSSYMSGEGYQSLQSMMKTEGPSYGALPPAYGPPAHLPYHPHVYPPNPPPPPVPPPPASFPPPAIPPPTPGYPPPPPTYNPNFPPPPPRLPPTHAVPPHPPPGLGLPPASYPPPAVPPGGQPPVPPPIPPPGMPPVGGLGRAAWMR
T1 sequence (Q9NYV4 whole entry partner): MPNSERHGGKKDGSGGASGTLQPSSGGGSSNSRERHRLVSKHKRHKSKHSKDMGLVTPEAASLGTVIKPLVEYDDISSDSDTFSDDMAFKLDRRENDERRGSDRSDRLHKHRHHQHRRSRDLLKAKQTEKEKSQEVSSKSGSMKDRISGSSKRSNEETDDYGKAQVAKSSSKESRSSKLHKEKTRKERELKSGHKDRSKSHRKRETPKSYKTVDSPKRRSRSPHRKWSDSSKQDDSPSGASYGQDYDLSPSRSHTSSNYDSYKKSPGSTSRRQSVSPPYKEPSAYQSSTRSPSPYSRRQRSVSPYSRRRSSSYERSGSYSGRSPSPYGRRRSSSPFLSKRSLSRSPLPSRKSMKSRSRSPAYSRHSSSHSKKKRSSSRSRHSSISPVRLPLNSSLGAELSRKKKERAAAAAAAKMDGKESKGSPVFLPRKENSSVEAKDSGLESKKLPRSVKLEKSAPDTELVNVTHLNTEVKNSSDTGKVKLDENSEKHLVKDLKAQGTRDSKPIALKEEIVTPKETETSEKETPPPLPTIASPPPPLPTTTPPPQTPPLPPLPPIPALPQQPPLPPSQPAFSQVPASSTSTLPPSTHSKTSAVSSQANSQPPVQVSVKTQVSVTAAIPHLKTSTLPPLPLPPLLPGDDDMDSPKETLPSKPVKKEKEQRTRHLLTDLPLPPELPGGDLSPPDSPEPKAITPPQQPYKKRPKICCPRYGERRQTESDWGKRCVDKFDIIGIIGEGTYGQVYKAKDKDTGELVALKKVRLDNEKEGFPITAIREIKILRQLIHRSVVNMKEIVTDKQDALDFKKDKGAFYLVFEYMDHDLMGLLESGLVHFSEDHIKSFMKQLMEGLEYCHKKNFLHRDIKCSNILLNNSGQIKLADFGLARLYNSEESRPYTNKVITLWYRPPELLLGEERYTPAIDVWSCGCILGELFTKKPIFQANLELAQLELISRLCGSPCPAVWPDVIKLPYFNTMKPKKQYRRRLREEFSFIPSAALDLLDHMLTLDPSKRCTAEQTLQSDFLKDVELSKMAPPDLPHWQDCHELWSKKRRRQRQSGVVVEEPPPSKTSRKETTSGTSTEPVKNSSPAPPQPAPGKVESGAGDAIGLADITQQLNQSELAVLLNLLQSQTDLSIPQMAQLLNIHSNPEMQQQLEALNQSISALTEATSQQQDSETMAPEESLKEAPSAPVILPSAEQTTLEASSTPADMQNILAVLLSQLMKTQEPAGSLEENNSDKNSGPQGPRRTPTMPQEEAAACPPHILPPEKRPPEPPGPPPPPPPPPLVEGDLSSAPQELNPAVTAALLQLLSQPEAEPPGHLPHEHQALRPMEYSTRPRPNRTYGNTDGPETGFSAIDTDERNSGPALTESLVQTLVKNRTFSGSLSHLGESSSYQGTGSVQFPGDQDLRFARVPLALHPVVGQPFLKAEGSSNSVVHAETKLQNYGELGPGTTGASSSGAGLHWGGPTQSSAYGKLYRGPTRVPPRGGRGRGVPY
T1 sequence (Q16531 whole entry partner): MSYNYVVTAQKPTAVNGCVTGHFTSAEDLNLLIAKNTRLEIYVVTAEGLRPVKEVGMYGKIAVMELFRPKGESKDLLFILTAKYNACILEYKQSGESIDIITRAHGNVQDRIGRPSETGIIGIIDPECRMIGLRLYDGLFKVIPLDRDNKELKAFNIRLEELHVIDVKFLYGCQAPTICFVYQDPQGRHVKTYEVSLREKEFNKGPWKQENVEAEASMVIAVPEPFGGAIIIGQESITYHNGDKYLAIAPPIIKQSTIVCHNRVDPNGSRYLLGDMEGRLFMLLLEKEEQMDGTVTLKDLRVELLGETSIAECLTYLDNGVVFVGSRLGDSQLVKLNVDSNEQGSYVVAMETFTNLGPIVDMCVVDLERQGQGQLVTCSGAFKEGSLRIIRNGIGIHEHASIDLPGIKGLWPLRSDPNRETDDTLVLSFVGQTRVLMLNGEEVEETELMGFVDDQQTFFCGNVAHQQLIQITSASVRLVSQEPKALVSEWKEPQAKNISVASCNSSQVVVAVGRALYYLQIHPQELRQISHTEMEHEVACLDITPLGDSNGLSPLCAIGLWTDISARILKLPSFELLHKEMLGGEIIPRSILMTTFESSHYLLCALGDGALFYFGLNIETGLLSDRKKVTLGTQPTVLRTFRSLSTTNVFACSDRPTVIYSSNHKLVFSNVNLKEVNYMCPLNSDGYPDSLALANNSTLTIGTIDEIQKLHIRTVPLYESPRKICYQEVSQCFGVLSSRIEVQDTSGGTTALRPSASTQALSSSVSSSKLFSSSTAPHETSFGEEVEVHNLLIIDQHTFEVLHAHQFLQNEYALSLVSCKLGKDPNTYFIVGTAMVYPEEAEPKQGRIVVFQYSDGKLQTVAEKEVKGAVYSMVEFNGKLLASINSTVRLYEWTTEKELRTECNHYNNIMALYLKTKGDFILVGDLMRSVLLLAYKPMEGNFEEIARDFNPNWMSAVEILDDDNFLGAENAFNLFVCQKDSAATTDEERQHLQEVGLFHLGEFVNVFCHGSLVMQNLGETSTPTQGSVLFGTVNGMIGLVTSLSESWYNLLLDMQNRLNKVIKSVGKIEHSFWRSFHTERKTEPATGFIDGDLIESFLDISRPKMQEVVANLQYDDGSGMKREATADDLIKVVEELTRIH

Structure (SMILES): N[C@H]1CC[C@H](Nc2nc(NCc3ccc(-c4ccccn4)cc3)n3ncc(Br)c3n2)CC1 [Compound 2384]
- CycK protein content ([1]; 1µM final concentration, 2h): decreased CycK protein content
- minimum effective dose for CycK degradation, times lower than that of CR8 ([1]; 2h treatment): approximately 10 times
- concentration inducing complete CycK degradation ([1]; 2h treatment, decreasing doses): 10 nM
- cell cycle analysis (propidium iodide) [2]: arrest in the G2/M phase
- CycK mRNA level [3]: not at the CycK mRNA level
- in vitro cytotoxic potency ([4]; panel of human cancer cell lines, in words): low nanomolar potencies
- cytotoxic potency compared to isopropyl counterpart ([4]; side-by-side comparison, Figures 1A/1B and 2A/2B): systematically more potent

From patent EP4512806A1, “MOLECULAR GLUE DEGRADERS AND USES THEREOF” (Mablink Bioscience, priority 2023, dated 2025)
